Results on three compounds are retold here after publication PMC6078708 (Neuropharmacology, 2018).

Assay [1] has as its target α7/5-HT3AR chimera (extracellular domain of human α7 nAChR fused to transmembrane and C-terminal domain of mouse 5-HT3AR) (UniProt P23979+P36544, M226I/T225I). The conditions noted are these: for effect on response evoked by maximal agonist concentration: compound 100 μM, 3 mM ACh. The method, then: (§1) Site-directed mutagenesis was performed using the QuikChange mutagenesis kit (Agilent Technologies) and verified by nucleotide sequencing (Source Bioscience).
(§2) Heterologous expression was achieved by cytoplasmic injection of in vitro transcribed cRNA. Prior to in vitro synthesis of cRNA plasmid cDNA was linearized by restriction enzyme digestion and purified with QIAQuik PCR purification kit (Qiagen). In vitro synthesis of cRNA was performed using mMessage mMachine SP6 and T7 transcription kits (ThermoFisher Scientific). Oocytes were injected with approximately 9 ng cRNA using a Drummond variable volume microinjector. […] Experiments were performed on oocytes after 3–5 days of incubation. […] Application of compounds was controlled by LabChart software (AD Instruments) using a BPS-8 solenoid valve solution exchange system (ALA Scientific Inc). Allosteric modulators were pre-applied for 30 s before co-application with agonist.
(§3) Data are presented as means ± SEM of at least three independent experiments, that were conducted on separate oocytes. For multiple comparisons, statistical significance was determined with an unpaired one-way analysis of variance (ANOVA). Post-hoc analysis was performed with a Tukey multiple comparison test. For individual comparisons, statistical significance was determined using unpaired t-tests.

A further assay addresses T1, mouse 5-HT3AR (Mus musculus, UniProt P23979).
T1 sequence (P23979 24-489): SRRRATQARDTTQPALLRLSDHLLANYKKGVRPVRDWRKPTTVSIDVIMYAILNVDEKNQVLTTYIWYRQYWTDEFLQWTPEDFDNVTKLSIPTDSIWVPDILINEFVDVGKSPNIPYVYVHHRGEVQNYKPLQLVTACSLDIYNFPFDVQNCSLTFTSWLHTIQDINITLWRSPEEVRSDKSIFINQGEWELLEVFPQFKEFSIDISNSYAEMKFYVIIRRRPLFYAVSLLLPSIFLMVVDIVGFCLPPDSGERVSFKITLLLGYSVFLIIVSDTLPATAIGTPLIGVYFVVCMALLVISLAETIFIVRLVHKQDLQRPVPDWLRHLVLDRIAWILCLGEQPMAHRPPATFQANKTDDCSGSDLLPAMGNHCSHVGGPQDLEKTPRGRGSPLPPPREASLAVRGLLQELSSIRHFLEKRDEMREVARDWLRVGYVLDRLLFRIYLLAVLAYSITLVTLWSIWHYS
Particulars: for response evoked by maximal agonist concentration in presence of compound: compound 100 μM, 30 μM 5-HT. The method, then:
as §1, §2, §3

The next assay deals with α7 nAChR T288A (Homo sapiens, UniProt P36544, T311A). Description: cell-based. How it is done:
as §1, §2, §3

The target in a further assay is α7 nAChR S248A (Homo sapiens, UniProt P36544, S271A). In words: cell-based. How it is done: as §1, §2, §3
Sequence of α7 nAChR S248A (P36544 23-502 S271A): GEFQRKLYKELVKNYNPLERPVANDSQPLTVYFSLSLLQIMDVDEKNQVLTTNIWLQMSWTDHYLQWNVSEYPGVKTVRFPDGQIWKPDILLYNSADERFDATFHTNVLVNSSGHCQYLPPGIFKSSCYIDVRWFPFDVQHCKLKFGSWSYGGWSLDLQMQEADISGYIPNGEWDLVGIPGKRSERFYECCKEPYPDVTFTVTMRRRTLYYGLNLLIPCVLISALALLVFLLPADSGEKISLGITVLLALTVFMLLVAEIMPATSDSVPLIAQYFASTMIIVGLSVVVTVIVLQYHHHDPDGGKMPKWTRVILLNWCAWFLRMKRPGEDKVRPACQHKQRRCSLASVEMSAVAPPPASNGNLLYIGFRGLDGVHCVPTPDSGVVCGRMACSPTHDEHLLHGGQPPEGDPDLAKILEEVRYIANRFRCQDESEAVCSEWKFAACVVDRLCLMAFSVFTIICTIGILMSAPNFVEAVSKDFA
The target of a further assay is T2, α7 nAChR L247A (Homo sapiens, UniProt P36544, L247A/L270A).
T2 construct: expressed in transfected cells; host or cells: Xenopus laevis oocytes, injected with in vitro transcribed cRNA
T2 sequence (P36544 23-502 L247A/L270A): as the sequence (P36544 23-502 S271A) above, with L225A, L248A, A249S counted along it
Description: Two-electrode voltage-clamp recording of mutated α7 nAChR (L247A) in Xenopus oocytes. It is filed as cell-based. The method, then: as §1, §2, §3
In general terms: Two-electrode voltage clamp is typically applied to oocytes expressing channels or transporters.

For the next assay, the target named is T3, α7 nAChR M260L (Homo sapiens, UniProt P36544, M283L).
T3 construct: expressed in transfected cells; host or cells: Xenopus laevis oocytes, injected with in vitro transcribed cRNA
T3 sequence (P36544 23-502 M283L): as the sequence (P36544 23-502 S271A) above, with A249S, M261L counted along it
Description: Two-electrode voltage-clamp recording of mutated α7 nAChR (M260L) in Xenopus oocytes. It is filed as cell-based. The conditions noted are these: for activity at 100 µM: read-out: normalised response to EC50 ACh in presence of compound. The method, then:
as §1, §2, §3

Another assay deals with T4, α7 nAChR S222M (Homo sapiens, UniProt P36544, S245M).
T4 construct: expressed in transfected cells; host or cells: Xenopus laevis oocytes, injected with in vitro transcribed cRNA
T4 sequence (P36544 23-502 S245M): as the sequence (P36544 23-502 S271A) above, with S223M, A249S counted along it
Description: Two-electrode voltage-clamp recording of mutated α7 nAChR (S222M) in Xenopus oocytes. It is filed as cell-based. The method, then: as §1, §2, §3

Another assay has as its target T5, human α7 nAChR (Homo sapiens, UniProt P36544).
T5 construct: expressed in transfected cells; host or cells: Xenopus laevis oocytes, injected with in vitro transcribed cRNA
Description: Two-electrode voltage-clamp recording of wild-type human α7 nAChR expressed in Xenopus oocytes. It counts as cell-based. Particulars: for effect when applied alone: no ACh; for nature of antagonism against a range of ACh concentrations / response evoked by maximal agonist concentration in presence of compound: compound 100 μM; for response evoked by maximal agonist concentration in presence of compound: 3 mM ACh; for response to an EC50 concentration of ACh, % of the control response: compound 1 mM, ACh 100 μM; for activity at 100 µM: read-out: normalised response to EC50 ACh in presence of compound. How it is done: as §2, with “Allosteric modulators were pre-applied for 30 s before co-application with agonist.” left out
as §3

Where [2] appears, read: furosemide 1 mM, EC50 agonist (100 μM ACh).
Setting [3] is: furosemide 1 mM, maximal agonist (3 mM ACh).
[4] abbreviates: furosemide 1 mM, EC50 ACh (100 μM).
[5] abbreviates: co-application only, no pre-application.
Setting [6] is: read-out: normalised response to EC50 ACh in presence of compound.

Read-outs that look alike come from different tables or passages of the source.

T5 sequence (P36544 23-502): as the sequence (P36544 23-502 S271A) above, with A249S counted along it
Sequence of α7/5-HT3AR chimera (extracellular domain of human α7 nAChR fused to transmembrane and C-terminal domain of mouse 5-HT3AR) (P36544+P23979 fused P36544:T225I/P36544:M226I): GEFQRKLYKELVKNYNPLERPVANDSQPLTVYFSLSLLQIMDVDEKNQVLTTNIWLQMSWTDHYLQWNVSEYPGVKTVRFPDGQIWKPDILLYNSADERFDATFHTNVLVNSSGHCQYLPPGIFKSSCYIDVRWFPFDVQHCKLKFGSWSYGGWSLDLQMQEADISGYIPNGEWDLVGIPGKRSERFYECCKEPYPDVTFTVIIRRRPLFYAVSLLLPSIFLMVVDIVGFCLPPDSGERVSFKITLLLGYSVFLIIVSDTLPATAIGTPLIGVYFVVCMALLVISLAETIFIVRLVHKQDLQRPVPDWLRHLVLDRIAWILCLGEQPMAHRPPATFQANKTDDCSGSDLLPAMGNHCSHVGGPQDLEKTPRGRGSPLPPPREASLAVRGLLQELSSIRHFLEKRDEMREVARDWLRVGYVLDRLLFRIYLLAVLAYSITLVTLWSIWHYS
Sequence of α7 nAChR T288A (P36544 23-502 T311A): as the sequence (P36544 23-502 S271A) above, with A249S, T289A counted along it

For `NS(=O)(=O)c1cc(C(=O)O)c(NCc2ccco2)cc1Cl` [furosemide, Furosemide], the “agonist-evoked response in presence of furosemide” value in assay [1] (setting [2]) is on record as 98.2 ± 3.4%; at mouse 5-HT3AR (furosemide 1 mM, EC50 agonist (1 μM 5-HT)), 93.9 ± 3.7%. Moreover, the “agonist-evoked response in presence of furosemide (potentiation)” value in assay [1] (setting [3]) is 108 ± 2%; on mouse 5-HT3AR (furosemide 1 mM, maximal agonist (30 μM 5-HT)), 108 ± 2%; at human α7 nAChR (setting [2]), 136 ± 7%; at human α7 nAChR (setting [3]), 149 ± 6%. Besides, the “agonist effect when applied alone” value on mouse 5-HT3AR (compound alone, no 5-HT) was “no agonist effect”. For the same compound, the “ACh-evoked response in presence of furosemide, relative to control response” value at α7 nAChR T288A (setting [4]) came to 99.2 ± 1.2%; at α7 nAChR S248A (setting [4]) it was 102 ± 5.6%; on α7 nAChR L247A (furosemide 1 mM, EC50 ACh (10 μM)), 99.9 ± 4.3%. Further, the “agonist-evoked response in presence of furosemide, of the control response” value on α7 nAChR M260L (setting [4]) turned out to be 63 ± 8%. Further, the “potentiation of an EC50 concentration of ACh by furosemide” value at α7 nAChR S222M (setting [4]) was 244 ± 25%. The “type of allosteric modulation” value at human α7 nAChR is listed as “type I PAM”. In addition, the “potentiation of ACh responses in the absence of pre-application” value on human α7 nAChR (setting [5]) is listed as “no significant potentiation”. Also, on human α7 nAChR (furosemide 1 mM), the “maximum level of potentiation of ACh responses” value was found to be 1.6 ± 0.1 fold. For the same compound, the “effect when applied alone” value at human α7 nAChR (furosemide 1 mM) is “no effect”. Moreover, the concentration giving a half-maximal response (EC50) at human α7 nAChR (read-out: EC50 for potentiation of agonist-evoked responses) came to 200 ± 40 µM.

On to `Cc1cc(C)[n+](CCc2ccc(S(N)(=O)=O)cc2)c(C)c1` [DB04763, 1-N-(4-sulfamoylphenyl-ethyl)-2,4,6-tri methyl p yr id i ni u m], for which the “effect on response evoked by maximal agonist concentration” value in assay [1] was “not significantly different to their effects on 5-HT3ARs”. Besides, at mouse 5-HT3AR, the “response evoked by maximal agonist concentration in presence of compound” value (shortened to “response evoked … of compound”) came out at 92.1 ± 1.7%. For the same compound, the activity at 100 µM on α7 nAChR L247A (setting [6]) is 52.4 ± 0.8%. Besides, the activity at 100 µM at α7 nAChR M260L turned out to be 30.1 ± 2.4%. Also, on human α7 nAChR, the “type of allosteric modulation” value is listed as “NAMs”; the “nature of antagonism against a range of ACh concentrations” value is “non-surmountable”; the “response evoked … of compound” value was 20.0 ± 1.3%; the “response to an EC50 concentration of ACh, % of the control response” value is on record as 3.4 ± 0.9%. At human α7 nAChR, the activity at 100 µM turned out to be 20.1 ± 3.1%. Besides, the “antagonism in the absence of pre-application” value at human α7 nAChR (setting [5]) is given as “significant antagonism”. The “effect when applied alone” value at human α7 nAChR (compound alone) was “None of the three compounds had any significant effect when applied alone”. The half-maximal inhibitory concentration (IC50) at human α7 nAChR (read-out: IC50 for inhibition of agonist-evoked responses) is 46.4 ± 2.2 µM.

For the compound `CNS(=O)(=O)c1ccc(N/C=C2\C(=O)Nc3ccccc32)cc1` [DB08122, N-methyl-4-{[(2-oxo-1,2-dihydro-3h-indol-3-ylidene)methyl]amino}b en z en esul fon ami de], the “effect on response evoked by maximal agonist concentration” value in assay [1] is reported as “not significantly different to their effects on 5-HT3ARs”. Also, the “response evoked … of compound” value at mouse 5-HT3AR is “did not cause significant inhibition”; at human α7 nAChR it was 76.0 ± 4.8%. The activity at 100 µM at α7 nAChR T288A (setting [6]) was 65 ± 1.2%; on α7 nAChR S248A (setting [6]), 99.6 ± 1.6%; at α7 nAChR M260L, 101 ± 3.1%; at α7 nAChR S222M (setting [6]), 77.2 ± 3.7%; on human α7 nAChR, 90.6 ± 1.8%. This compound also had a half-inhibitory concentration (IC50) at human α7 nAChR of 1700 ± 300 µM. Moreover, at human α7 nAChR, the “type of allosteric modulation” value was “NAMs”. The “antagonism in the absence of pre-application” value on human α7 nAChR (setting [5]) is reported as “significant antagonism”. For the same compound, at human α7 nAChR, the “nature of antagonism against a range of ACh concentrations” value is “non-surmountable”. For the same compound, the “response to an EC50 concentration of ACh, % of the control response” value on human α7 nAChR stood at 60.6 ± 1.2%. Besides, the “effect when applied alone” value on human α7 nAChR (compound alone) is given as “None of the three compounds had any significant effect when applied alone”.

What is called EC50 is the concentration that produces a half-maximal response. As a reminder, the IC50 is the concentration at which inhibition is half-maximal.
